Measured values taken from patent US8445539B2, “Alpha-aminoamide derivatives useful in the treatment of psychiatric disorders” (priority 2007, dated 2013).

Legend:
Dopamine D4.2 = assay: Dopamine receptor radioligand binding assay; settings: inhibition of specific binding
Method: (§1) The assays were performed, under standard conditions, as described in the following publications: Dearry A et al., Nature; 1990; 347: 72-76; Bunzow J R et al., Nature; 1988; 336: 783-787; Sokoloff P. et al., Nature; 1990; 347: 146-151; Van Tol H H M et al., Nature; 1991; 350: 610-614; Van Tol H H M et al., Nature; 1992; 358: 149-152; Sibley D R et al., Trend Pharmacol. Sci.; 1992; 13:61-69.
(§2) Biochemical assay results are presented as the percent inhibition of specific bindings at a single compound concentration. Responses are considered significant for binding activities >50%.

Dopamine D3 = Dopamine D3 (Homo sapiens, UniProt P35462); assay: Dopamine receptor radioligand binding assay; settings: inhibition of specific binding
Chain of Dopamine D3 (P35462 whole entry): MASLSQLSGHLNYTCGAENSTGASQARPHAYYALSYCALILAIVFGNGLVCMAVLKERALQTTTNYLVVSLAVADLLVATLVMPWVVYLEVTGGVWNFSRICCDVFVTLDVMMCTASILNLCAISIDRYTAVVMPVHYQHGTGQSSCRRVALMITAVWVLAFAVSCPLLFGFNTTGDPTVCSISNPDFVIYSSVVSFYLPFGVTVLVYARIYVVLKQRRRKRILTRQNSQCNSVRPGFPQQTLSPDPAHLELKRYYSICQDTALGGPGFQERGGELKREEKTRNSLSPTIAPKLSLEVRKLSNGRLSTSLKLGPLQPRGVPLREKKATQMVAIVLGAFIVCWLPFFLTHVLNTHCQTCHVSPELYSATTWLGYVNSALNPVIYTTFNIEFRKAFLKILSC
Method: as §1, §2

Dopamine D2S = Dopamine D2S (Homo sapiens, UniProt P14416); assay: Dopamine receptor radioligand binding assay; settings: inhibition of specific binding
Chain of Dopamine D2S (P14416 1-414 isoform P14416-2): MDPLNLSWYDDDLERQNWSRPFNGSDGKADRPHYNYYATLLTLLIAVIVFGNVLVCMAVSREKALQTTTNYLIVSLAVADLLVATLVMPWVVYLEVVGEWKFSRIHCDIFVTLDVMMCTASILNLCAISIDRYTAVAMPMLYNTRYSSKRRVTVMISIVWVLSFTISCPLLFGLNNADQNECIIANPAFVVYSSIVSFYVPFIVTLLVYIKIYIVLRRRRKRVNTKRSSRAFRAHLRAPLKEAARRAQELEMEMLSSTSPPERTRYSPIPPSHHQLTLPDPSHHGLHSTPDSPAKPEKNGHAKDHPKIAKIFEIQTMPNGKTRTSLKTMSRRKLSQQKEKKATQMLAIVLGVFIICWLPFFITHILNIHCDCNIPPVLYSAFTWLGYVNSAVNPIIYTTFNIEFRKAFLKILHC
Method: as §1, §2

Dopamine D1 = Dopamine D1 (Homo sapiens, UniProt P21728); assay: Dopamine receptor radioligand binding assay; settings: inhibition of specific binding
Chain of Dopamine D1 (P21728 whole entry): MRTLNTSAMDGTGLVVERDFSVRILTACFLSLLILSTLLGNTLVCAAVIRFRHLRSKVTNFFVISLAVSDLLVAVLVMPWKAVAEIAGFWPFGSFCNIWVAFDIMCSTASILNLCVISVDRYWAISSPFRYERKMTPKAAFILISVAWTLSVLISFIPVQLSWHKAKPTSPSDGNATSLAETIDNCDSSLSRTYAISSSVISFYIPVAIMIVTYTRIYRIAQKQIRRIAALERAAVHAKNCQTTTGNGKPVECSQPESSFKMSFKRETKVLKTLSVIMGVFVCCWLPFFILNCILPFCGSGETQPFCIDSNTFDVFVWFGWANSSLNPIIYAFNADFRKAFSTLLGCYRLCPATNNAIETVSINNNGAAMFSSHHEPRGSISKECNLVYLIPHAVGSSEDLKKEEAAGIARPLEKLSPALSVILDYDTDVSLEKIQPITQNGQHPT
Method: as §1, §2

Dopamine D2L = Dopamine D2L (Homo sapiens, UniProt P14416); assay: Dopamine receptor radioligand binding assay; settings: inhibition of specific binding
Chain of Dopamine D2L (P14416 whole entry): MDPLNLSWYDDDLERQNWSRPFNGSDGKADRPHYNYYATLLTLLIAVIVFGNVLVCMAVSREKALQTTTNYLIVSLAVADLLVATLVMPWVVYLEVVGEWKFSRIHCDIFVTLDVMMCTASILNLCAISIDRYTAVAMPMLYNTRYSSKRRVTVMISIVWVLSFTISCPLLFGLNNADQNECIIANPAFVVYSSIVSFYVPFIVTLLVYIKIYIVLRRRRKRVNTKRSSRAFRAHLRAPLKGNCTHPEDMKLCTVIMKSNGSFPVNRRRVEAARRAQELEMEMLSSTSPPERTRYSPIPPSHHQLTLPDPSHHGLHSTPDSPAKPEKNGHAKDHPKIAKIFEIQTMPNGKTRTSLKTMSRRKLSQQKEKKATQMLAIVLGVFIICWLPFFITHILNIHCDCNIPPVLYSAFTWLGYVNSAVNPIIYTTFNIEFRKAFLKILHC
Method: as §1, §2

Dopamine D4.4 = target: T1, Dopamine D4.4 (Homo sapiens, UniProt P21917); assay: Dopamine receptor radioligand binding assay; settings: inhibition of specific binding
T1 sequence (P21917 1-419): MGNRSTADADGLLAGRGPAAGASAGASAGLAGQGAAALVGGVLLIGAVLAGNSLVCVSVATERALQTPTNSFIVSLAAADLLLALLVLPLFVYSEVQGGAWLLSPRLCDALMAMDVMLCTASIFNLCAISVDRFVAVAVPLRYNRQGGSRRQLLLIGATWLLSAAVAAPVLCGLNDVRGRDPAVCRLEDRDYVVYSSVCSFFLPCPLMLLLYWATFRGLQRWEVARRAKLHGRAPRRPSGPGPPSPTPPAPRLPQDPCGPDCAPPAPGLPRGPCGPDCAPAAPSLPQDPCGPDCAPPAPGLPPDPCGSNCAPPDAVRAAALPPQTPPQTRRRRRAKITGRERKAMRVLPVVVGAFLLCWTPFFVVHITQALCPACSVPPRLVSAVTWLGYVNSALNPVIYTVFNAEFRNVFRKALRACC
Method: as §1, §2

Dopamine D5 = Dopamine D5 (Homo sapiens, UniProt P21918); assay: Dopamine receptor radioligand binding assay; settings: inhibition of specific binding
Chain of Dopamine D5 (P21918 whole entry): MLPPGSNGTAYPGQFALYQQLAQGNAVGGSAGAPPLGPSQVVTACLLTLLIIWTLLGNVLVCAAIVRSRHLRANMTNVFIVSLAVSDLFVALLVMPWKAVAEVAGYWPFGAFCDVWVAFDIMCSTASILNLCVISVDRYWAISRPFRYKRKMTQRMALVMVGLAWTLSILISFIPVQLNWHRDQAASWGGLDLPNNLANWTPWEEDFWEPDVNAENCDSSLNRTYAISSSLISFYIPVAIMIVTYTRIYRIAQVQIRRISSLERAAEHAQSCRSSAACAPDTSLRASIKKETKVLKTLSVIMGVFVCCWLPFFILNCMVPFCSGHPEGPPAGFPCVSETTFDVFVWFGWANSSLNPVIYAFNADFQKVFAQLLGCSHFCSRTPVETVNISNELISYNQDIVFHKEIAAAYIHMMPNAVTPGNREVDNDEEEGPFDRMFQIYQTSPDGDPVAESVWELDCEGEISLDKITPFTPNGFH
Method: as §1, §2

Dopamine D4.7 = assay: Dopamine receptor radioligand binding assay; settings: inhibition of specific binding
Method: as §1, §2

[1] = test system: MK-801-induced PPI disruption; assay: Prepulse inhibition of startle with disruption by MK-801; type: in vivo, Wistar rats; settings: for Percentage of inhibition: % PPI; for Percentage of inhibition / Acoustic tone alone / Startle amplitude on prepulse + pulse trials: pretreatment ralfinamide methanesulfonate 90 mg/kg oral, mean ± SEM; for Acoustic tone alone / Startle amplitude on prepulse + pulse trials: startle amplitude
Description: Prepulse inhibition (PPI) is a cross-species phenomenon (i.e., it is present in mammals ranging from mice to humans), yet it is relatively impaired among schizophrenic patients. The PPI procedure is used to assess the subject's ability to “gate” or filter environmental information. In the acoustic (startle model) of sensorimotor gating a weak acoustic stimulus (prepulse) decrease the reflexive flinching response (startle) produced by a second, more intense, stimulus (the pulse). Drugs like dizocilpine (MK-801) or amphetamine disrupt PPI and represent an animal model of schizophrenia; antipsychotic drugs are able to prevent PPI deficit. The test is quite useful to screen potential antipsychotic drugs.
Methods: Male Wistar rats, weighing 200-300 g were used. Apparatus: All startle and PPI testing has been performed in four startle chambers. Each ventilated illuminated and sound proof chamber contained a clear non-restrictive Plexiglas cylinder resting on a platform. A high-frequency loudspeaker inside the chamber produced both a continuous background noise of 70 dB and the various acoustic stimuli. Vibrations of the Plexiglas cylinder caused by the whole-body startle response of the animal were transduced into analogue signals by a piezoelectric unit attached to the platform. These signals were then digitized and stored by a computer. Sixty-five readings were taken at 1-ms intervals starting at stimulus onset, and the average amplitude was used to determine the acoustic startle response. Sound levels is given in dB.
Prepulse inhibition session: After 5 min of habituation (background white noise, 70 dB), two types of acoustic stimuli were used: acoustic stimulus alone (120 dB, 40 ms) or the stimulus proceeded by a prepulse (76, 79, 82 dB, 40 ms) applied 100 ms before the stimulus. During each experimental session 20 trials of each type were presented with interstimulus interval of 20 s. The amplitudes were averaged for each individual animal, separately for both types of trials (stimulus alone or stimulus preceded by the prepulse). The degree of prepulse inhibition was shown as a percentage score (% PPI) calculated as […] a difference between the amplitude of the pulse-alone (P) and the amplitude of the prepulse+pulse trials (PP+P), divided by the amplitude of the pulse-alone trials and multiplied by 100. […] Substances and treatments: MK-801 0.2 mg/kg was dissolved in saline and was given i.p. In each experiment, […] were assigned to receive either compounds of the disclosure or vehicle and were tested in the PPI session using a between-subjects design. The order of drug treatment for the first experiment was test-compound, followed by MK-801; for the second experiment rats received test-compound and then amphetamine. Statistical Analysis: Multiple ANOVA was conducted followed by Dunnett's post hoc test.

[2] = treatment MK-801 0.2 mg/kg i.p.

C[C@H](NCc1ccc(OCc2ccccc2F)cc1)C(N)=O [Ralfinamide methanesulfonate, (S)-(+)-2-[4-(2-fluorobenzyloxy)benzylamino]propanamide]
% Inhibition at 10 μm (Dopamine D4.2): 1% | % Inhibition at 10 μm (Dopamine D3): 7% | % Inhibition at 10 μm (Dopamine D2S): no inhibition | % Inhibition at 10 μm (Dopamine D1): no inhibition | % Inhibition at 10 μm (Dopamine D2L): no inhibition | % Inhibition at 10 μm (Dopamine D4.4): no inhibition | % Inhibition at 10 μm (Dopamine D5): no inhibition | % Inhibition at 10 μm (Dopamine D4.7): no inhibition | Percentage of inhibition [1, 2]: 21.92 ± 0.40 % | Percentage of inhibition ([1]; treatment vehicle): 44.16 ± 3.54% | Reversing the disruptive effect of MK-801 on PPI ([1]; orally, 90 mg/kg): active | Acoustic tone alone [1, 2]: 38.50 ± 1.36 | Startle amplitude on prepulse + pulse trials [1, 2]: 30.00 ± 0.90 | Acoustic tone alone ([1]; treatment vehicle): 35.50 ± 0.45 | Startle amplitude on prepulse + pulse trials ([1]; treatment vehicle): 20.00 ± 1.51
